This passage reports IC50, EC50 and AC50 results from ChEMBL document CHEMBL1201862, “PubChem BioAssay data set” (2004).

One assay has as its target Beta-galactosidase (Escherichia coli, UniProt Q8VNN2). Description: detection-enzyme interference by beta-gal modulators – biochemical, E. coli enzyme, set 3, artefact control for CCR6 antagonist project, dose response (AID 504712). Format: functional.
Assay [1] addresses G-protein coupled receptor 55 (Homo sapiens, UniProt Q9Y2T6). Description: inhibition of LPI-stimulated GPR55 beta-arrestin translocation – imaging, U2OS, beta-arrestin-GFP, LPI agonist, primary screen (AID 2013).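 Note: antagonist potency measured as reduced agonist-driven arrestin aggregation.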 Format: functional.
Assay [2] has as its target Peroxisome proliferator-activated receptor gamma/Nuclear receptor coactivator 1 (Homo sapiens, UniProt P37231). Put plainly: TR-FRET dose response biochemical High Throughput Screening assay for agonists of the steroid receptor coactivator 1 (SRC-1) recruitment by the peroxisome proliferator-activated receptor gamma (PPAR gamma): non-selective agonists. [Related pubchem assays (depositor defined):AID1300, AID1808, AID504735, AID631]. Format: protein assay.

In assay [3] the target is Peroxisome proliferator-activated receptor gamma/Nuclear receptor coactivator 2 (Homo sapiens, UniProt P37231). Description: TR-FRET dose response biochemical High Throughput Screening assay for agonists of the steroid receptor coactivator 2 (SRC-2) recruitment by the peroxisome proliferator-activated receptor gamma (PPAR gamma): non-selective agonists. [Related pubchem assays: 1297, 1032 ]. Format: functional. (In TR-FRET formats the signal depends on donor and acceptor labels being close together.)

The target in assay [4] is Peroxisome proliferator-activated receptor gamma/Nuclear receptor coactivator 3 (Homo sapiens, UniProt P37231). Description: TR-FRET dose response biochemical High Throughput Screening assay for agonists of the steroid receptor coactivator 3 (SRC-3) recruitment by the peroxisome proliferator-activated receptor gamma (PPAR gamma): non-selective agonists. [Related pubchem assays: 1301 (Confirmation screen.), 1048 (Primary screen.)]. The assay is classed as functional.

The target of a further assay is T1, Bcl-2-related protein A1 (Mus musculus, UniProt Q07440).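 Note: confirmatory dose–response counterscreen on Bfl-1, used to check hits from a UBC13 polyubiquitin inhibitor campaign.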
T1 sequence (Q07440 whole entry): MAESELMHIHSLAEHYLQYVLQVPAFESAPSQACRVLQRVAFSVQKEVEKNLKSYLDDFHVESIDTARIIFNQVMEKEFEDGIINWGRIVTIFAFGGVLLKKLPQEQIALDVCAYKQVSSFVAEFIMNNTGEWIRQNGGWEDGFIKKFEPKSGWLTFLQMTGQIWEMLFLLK
The assay is classed as functional.

In assay [5] the target is T2, Ubiquitin-conjugating enzyme E2 N (Homo sapiens, UniProt P61088).
T2 sequence (P61088 whole entry): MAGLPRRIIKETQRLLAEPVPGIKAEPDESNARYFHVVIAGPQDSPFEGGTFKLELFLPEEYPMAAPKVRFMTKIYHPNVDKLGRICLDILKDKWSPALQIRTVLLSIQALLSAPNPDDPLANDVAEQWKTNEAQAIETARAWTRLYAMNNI
Format: functional.

Assay [6] concerns the target T2, Ubiquitin-conjugating enzyme E2 N. Format: functional. The source holds these as a separate data set.
The target of the next assay is T3, Aminopeptidase N (Plasmodium falciparum FcB1/Columbia, UniProt O96935).
T3 sequence (O96935 whole entry): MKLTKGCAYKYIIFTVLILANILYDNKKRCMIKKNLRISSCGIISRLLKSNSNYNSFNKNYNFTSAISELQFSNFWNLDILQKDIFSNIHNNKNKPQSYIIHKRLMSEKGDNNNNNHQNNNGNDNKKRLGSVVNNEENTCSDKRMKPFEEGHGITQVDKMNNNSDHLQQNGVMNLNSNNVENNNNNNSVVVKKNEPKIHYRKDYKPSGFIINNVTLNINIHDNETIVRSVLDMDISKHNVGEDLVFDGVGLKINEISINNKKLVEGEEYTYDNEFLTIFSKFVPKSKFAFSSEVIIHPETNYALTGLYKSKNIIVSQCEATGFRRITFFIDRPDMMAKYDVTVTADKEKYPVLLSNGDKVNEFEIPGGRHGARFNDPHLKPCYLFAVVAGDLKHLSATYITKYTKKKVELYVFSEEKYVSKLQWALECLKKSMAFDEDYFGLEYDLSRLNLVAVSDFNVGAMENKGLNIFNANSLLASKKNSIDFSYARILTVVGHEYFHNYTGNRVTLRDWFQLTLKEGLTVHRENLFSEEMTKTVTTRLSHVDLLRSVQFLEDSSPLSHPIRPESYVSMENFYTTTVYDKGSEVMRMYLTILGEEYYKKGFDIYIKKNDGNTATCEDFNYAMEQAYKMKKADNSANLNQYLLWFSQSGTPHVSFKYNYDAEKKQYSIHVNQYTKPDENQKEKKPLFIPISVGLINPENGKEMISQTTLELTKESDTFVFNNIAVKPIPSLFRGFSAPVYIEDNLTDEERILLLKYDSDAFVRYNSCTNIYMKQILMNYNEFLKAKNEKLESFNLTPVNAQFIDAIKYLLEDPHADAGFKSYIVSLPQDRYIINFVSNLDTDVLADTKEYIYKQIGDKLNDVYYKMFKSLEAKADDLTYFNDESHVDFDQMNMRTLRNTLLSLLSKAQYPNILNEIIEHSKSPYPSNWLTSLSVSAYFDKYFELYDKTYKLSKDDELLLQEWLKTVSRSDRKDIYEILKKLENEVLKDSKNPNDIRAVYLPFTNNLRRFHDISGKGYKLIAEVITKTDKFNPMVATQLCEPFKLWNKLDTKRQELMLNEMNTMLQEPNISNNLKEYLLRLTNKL
Put plainly: malaria alanyl aminopeptidase activity blockers – biochemical, fluorogenic H-Leu-NHMec substrate, 1536-well (AID 1445). Also on record: species or system Plasmodium falciparum 3D7, 3D7.

A further assay deals with Large T antigen (Simian virus 40, UniProt P03070). Format: functional, Betapolyomavirus macacae.
The target in assay [7] is T4, DNA dC->dU-editing enzyme APOBEC-3G (Homo sapiens, UniProt Q9HC16). Format: functional.
In assay [8] the target is T5, DNA dC->dU-editing enzyme APOBEC-3A (Homo sapiens, UniProt P31941). Description: Dose Response confirmation of small molecule APOBEC3A DNA Deaminase Inhibitors via a fluorescence-based single-stranded DNA deaminase assay. [Related pubchem assays (depositor defined):AID493011, AID493024]. The assay is classed as functional.
Assay [9] has as its target Glyceraldehyde-3-phosphate dehydrogenase (Homo sapiens, UniProt P04406).
For assay [10], the target named is T6, Alkaline phosphatase, tissue-nonspecific isozyme (Homo sapiens, UniProt P05186).
T6 sequence (P05186 whole entry): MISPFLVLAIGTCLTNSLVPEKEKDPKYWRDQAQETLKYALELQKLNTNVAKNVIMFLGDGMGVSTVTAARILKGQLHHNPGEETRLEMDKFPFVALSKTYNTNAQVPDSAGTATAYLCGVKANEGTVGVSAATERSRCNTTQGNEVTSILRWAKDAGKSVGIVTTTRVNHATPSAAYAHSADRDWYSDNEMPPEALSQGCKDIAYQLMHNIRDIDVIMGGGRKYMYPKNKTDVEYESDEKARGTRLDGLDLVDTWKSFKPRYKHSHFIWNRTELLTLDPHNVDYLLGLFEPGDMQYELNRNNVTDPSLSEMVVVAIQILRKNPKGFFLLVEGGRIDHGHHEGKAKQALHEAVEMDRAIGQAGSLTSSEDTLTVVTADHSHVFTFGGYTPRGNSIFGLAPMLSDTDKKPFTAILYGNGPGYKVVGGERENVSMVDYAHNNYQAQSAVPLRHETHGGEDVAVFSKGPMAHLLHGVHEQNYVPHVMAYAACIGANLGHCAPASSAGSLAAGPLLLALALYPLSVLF
Put plainly: potency against alkaline phosphatase TNAP – biochemical, luminescent, dose response, SAR follow-up (AID 1056).

For the next assay, the target named is Genome polyprotein (dengue virus type 2, UniProt P29990). Description: flavivirus cap methylation enzyme inhibition – biochemical, confirmation dose response, primary screen (AID 588689). Format: functional.
The nature of assay [11]: NIH3T3 cell viability loss – ATP luminescence, mouse fibroblasts, counter-screen, dose response (AID 2010).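 Note: cells exposed to compound for about 90 hours before reading.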 The assay is classed as functional, cell-based. A general note: A counterscreen serves to expose hits that act by an unwanted route or on another target.
Assay [12] in a line: Trypanosoma cruzi growth suppression in host cells – NIH3T3 host cells, beta-gal luminescence, confirmation (AID 2044).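 Note: intracellular parasites grown in NIH/3T3 mouse fibroblasts as host cells; luminescent beta-galactosidase reporter signal from transgenic T. cruzi replicating inside host cells; inhibitors lower the luminescence signal.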 The assay is classed as functional, cell-based.
Assay [13] deals with T7, Microphthalmia-associated transcription factor (Homo sapiens, UniProt O75030).
T7 sequence (O75030 whole entry): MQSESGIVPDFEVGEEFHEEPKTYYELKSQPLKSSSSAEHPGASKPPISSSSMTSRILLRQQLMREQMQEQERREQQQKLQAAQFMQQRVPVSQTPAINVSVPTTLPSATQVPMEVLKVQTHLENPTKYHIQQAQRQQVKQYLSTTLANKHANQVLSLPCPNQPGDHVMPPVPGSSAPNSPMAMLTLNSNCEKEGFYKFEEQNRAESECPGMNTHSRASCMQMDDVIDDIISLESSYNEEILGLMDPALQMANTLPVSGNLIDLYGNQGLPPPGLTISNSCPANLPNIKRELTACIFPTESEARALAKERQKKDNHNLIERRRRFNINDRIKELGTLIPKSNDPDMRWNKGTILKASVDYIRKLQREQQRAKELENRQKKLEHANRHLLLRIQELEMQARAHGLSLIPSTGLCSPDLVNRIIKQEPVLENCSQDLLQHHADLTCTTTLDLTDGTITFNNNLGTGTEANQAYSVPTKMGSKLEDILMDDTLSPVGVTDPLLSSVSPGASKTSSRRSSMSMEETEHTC
Description: reducers of TRPM1 reporter luminescence, concentration series – cell-based, SK-MEL-5, cherry-picked, set 3, MITF inhibitor project, dose response (AID 493073).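 Note: SK-MEL-5 melanoma cells with luciferase driven by the MITF target TRPM1 promoter.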 The assay is classed as functional.

Assay [14] addresses T5, DNA dC->dU-editing enzyme APOBEC-3A. Description: A3A deaminase inhibition for selectivity – biochemical, dose response (AID 504722). The assay is classed as functional.
Assay [15] addresses T4, DNA dC->dU-editing enzyme APOBEC-3G. Put plainly: Dose Response confirmation of small molecule APOBEC3G DNA Deaminase Inhibitors via a fluorescence-based single-stranded DNA deaminase assay. [Related pubchem assays (depositor defined):AID493012, AID493028]. Format: functional.

Structures are written as SMILES. Active and inactive are the calls of the source.

Chain of Peroxisome proliferator-activated receptor gamma/Nuclear receptor coactivator 3 (P37231 whole entry): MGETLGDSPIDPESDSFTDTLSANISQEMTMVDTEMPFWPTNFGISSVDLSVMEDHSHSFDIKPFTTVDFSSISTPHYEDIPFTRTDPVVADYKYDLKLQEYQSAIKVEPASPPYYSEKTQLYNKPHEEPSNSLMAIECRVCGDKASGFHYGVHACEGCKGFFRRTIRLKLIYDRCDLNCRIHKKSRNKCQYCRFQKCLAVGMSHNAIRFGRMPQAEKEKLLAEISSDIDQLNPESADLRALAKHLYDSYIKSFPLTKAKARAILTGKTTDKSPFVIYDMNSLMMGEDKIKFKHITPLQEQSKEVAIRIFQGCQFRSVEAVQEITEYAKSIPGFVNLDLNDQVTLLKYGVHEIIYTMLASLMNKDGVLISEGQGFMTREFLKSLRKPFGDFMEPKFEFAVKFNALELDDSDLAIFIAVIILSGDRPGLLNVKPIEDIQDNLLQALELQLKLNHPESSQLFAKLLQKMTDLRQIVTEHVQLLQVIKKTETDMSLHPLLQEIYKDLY
Chain of Peroxisome proliferator-activated receptor gamma/Nuclear receptor coactivator 3 (Q9Y6Q9 whole entry, further chain): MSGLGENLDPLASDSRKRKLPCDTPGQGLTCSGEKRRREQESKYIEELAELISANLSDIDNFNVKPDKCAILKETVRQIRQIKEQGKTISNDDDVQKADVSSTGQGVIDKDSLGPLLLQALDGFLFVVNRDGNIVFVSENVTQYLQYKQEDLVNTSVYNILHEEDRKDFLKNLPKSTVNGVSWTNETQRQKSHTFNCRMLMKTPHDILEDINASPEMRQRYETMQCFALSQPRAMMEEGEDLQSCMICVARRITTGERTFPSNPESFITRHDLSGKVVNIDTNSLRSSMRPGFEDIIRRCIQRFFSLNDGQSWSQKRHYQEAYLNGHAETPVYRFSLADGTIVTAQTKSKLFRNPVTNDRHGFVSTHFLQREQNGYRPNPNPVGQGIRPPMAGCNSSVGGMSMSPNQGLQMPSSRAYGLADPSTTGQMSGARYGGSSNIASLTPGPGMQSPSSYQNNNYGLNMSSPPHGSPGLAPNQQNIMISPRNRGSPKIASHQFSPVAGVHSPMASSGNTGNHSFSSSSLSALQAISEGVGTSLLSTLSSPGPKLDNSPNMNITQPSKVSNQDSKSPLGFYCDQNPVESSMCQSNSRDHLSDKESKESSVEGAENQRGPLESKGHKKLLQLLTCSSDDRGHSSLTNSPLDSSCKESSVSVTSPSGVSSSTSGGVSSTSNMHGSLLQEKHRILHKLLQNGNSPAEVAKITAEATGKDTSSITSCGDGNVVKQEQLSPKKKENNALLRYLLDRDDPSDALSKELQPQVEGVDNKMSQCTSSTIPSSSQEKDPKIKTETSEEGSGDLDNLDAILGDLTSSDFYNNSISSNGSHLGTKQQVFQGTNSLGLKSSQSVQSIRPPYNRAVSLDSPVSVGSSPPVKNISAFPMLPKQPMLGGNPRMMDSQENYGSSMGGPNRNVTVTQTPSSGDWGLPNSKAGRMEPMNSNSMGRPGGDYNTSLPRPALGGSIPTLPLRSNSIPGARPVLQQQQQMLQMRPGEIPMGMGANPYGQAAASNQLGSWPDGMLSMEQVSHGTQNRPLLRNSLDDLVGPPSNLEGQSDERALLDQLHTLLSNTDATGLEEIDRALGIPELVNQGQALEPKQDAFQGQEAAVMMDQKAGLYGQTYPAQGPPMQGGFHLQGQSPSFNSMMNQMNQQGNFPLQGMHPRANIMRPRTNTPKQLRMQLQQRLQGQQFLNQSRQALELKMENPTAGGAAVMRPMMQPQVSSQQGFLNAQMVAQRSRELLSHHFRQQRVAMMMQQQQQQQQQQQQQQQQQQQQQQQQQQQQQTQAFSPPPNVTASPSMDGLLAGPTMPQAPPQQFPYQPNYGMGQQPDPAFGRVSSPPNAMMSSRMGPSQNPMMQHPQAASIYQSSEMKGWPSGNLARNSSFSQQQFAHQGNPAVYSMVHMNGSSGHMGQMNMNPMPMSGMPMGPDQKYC
Chain of Peroxisome proliferator-activated receptor gamma/Nuclear receptor coactivator 1 (P37231 whole entry): as the sequence (P37231 whole entry) above
Chain of Peroxisome proliferator-activated receptor gamma/Nuclear receptor coactivator 1 (Q15788 whole entry, further chain): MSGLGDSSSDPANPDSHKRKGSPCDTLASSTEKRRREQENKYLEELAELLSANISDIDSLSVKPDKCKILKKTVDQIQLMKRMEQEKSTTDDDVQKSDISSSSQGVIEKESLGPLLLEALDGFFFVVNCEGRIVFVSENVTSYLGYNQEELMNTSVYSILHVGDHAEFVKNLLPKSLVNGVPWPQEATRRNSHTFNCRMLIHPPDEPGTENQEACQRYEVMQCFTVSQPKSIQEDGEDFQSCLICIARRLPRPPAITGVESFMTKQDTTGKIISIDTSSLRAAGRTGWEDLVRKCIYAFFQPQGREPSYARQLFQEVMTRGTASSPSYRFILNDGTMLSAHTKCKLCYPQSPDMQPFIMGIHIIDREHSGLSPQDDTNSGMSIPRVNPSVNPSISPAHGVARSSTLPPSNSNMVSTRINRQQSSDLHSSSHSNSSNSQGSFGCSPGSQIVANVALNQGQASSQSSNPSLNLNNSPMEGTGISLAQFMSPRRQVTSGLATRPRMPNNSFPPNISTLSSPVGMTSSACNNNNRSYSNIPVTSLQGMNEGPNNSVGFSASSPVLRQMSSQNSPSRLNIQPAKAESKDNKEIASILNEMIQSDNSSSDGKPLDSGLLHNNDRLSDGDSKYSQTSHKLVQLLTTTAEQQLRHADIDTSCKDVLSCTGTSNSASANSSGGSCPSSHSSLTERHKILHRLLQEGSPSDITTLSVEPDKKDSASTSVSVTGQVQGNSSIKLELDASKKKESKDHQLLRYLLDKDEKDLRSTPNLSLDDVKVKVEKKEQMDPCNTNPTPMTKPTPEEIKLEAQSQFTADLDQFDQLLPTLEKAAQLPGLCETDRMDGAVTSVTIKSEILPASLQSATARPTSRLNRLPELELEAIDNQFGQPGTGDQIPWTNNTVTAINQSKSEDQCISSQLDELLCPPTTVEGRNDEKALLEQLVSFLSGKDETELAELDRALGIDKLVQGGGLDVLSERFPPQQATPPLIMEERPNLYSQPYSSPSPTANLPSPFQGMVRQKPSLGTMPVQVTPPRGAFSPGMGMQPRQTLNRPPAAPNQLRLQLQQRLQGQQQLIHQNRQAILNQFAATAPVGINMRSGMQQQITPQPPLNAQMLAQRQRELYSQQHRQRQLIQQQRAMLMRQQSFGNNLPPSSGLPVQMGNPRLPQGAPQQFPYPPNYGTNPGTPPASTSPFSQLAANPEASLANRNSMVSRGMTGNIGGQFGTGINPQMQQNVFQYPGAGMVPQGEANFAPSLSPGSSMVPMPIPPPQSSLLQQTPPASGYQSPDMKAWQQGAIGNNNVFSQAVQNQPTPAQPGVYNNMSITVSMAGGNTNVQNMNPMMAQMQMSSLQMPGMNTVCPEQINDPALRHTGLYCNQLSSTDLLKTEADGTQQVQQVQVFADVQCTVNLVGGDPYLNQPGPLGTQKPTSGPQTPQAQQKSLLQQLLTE
T4 sequence (Q9HC16 whole entry): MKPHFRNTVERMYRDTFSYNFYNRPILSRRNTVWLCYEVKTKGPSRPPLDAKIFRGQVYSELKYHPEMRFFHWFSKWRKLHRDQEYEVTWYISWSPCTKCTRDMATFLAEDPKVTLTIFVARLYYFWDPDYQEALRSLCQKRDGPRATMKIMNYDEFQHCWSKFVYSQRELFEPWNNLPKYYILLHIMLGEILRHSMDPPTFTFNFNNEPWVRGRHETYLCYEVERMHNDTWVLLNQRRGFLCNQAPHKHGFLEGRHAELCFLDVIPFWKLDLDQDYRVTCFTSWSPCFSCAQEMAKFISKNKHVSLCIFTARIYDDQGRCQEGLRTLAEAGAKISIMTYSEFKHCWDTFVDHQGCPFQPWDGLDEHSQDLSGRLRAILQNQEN
T5 sequence (P31941 whole entry): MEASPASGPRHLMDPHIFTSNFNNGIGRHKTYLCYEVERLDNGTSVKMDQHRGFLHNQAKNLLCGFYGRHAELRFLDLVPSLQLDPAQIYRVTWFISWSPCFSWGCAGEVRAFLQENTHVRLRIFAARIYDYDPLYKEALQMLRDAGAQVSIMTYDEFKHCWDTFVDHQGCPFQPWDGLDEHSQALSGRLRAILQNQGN
Chain of G-protein coupled receptor 55 (Q9Y2T6 whole entry): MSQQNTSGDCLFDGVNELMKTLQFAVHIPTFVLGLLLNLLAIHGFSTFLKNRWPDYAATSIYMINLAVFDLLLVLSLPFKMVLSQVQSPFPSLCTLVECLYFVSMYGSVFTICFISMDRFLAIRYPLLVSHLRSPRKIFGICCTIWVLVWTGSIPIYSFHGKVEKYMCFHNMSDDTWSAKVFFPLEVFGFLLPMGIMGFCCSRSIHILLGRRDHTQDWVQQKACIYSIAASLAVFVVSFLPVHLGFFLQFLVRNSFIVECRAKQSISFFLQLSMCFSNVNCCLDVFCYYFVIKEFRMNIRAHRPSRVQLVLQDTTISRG

As for `O=C(Nc1ccccc1Cl)c1ccccc1Oc1ccc(C(F)(F)F)cc1[N+](=O)[O-]`, the IC50 on Beta-galactosidase was > 66.6 µM (inactive); in assay [1] it was 3.31 µM (active).
For `Cc1ccc(S(=O)(=O)NCC(=O)OCC(=O)c2ccc(Br)s2)cc1`, the EC50 in assay [2] was 60 µM (inactive); in assay [3], 8.2 µM (active); in [4], > 79.4 µM (not active).
In the case of `CC(=O)c1ccc(OCC(O)CN2CCN(CCN3C(=O)c4cccc5cccc(c45)C3=O)CC2)cc1` (centres undefined), the IC50 at Bcl-2-related protein A1 is > 20 µM (inactive); in assay [5] it was 4.79 µM (active); in [6], 4.17 µM (active).
In the case of `O=C(O)c1cc(S(=O)(=O)Nc2ccc3oc(=O)sc3c2)ccc1O`, the results for the IC50 at Aminopeptidase N and on Large T antigen were 70.9 µM (active) and 33.3 µM (active), respectively.
With `COc1ccc(-c2nnc(SCC(=O)Nc3cc(S(=O)(=O)N4CCCCC4)ccc3Cl)n2N)cc1`, the IC50 on Aminopeptidase N is 39.3 µM (active).
For `COc1ccc(C(CC(=O)N2CCOCC2)c2c(OC)cc(OC)c3c(-c4ccccc4)cc(=O)oc23)cc1` (centres undefined), the IC50 was 50.9 µM (active) in [7] and 17 µM (active) in assay [8].
In the case of `COc1ccc(Cc2nnc(N3C(=O)c4ccccc4C3=O)[nH]2)cc1`, the IC50 in [9] was > 100 µM (not active); in [10] it was > 100 µM (inactive).
`COc1cccc(C2C=C(c3ccc(Br)s3)Nc3ncnn32)c1OC` (centres undefined): the EC50 in assay [2] is 8.66 µM (active); in [3] it was 9.72 µM (active); in assay [4], > 26.5 µM (not active).
In the case of `CCc1cccc(NC(=O)C[n+]2c3n(c4ccc(C(F)(F)F)cc42)CCCCC3)c1`, the IC50 is 5.22 µM (active) in [7] and 2.69 µM (active) in [8].
For the compound `CN1CCN(C(=O)CCN2C(=O)/C(=C/c3ccccc3Cl)SC2=S)CC1`, the IC50 was > 20 µM (inactive) at Bcl-2-related protein A1, 17.8 µM (active) in assay [5] and > 20 µM (inactive) in [6].
Take `CN=C(S)N1N=C(c2ccccc2)CC1c1ccc(Br)cc1` (centres undefined): the EC50 was 27.8 µM (inactive) in assay [2], 27.5 µM (not active) in assay [3] and > 79.4 µM (not active) in assay [4].
As to `O=C(COc1ccccc1/C=C\c1nc(O)nc(O)c1[N+](=O)[O-])Nc1ccccc1`, the IC50 is 39.9 µM (active) on Genome polyprotein and 42.9 µM (active) at Aminopeptidase N. The EC50 in assay [11] and in assay [12] was > 60 µM (not active) in each case.
As for `Cc1ccc(-c2cn3nc(C)c(C)nc3n2)cc1`, the AC50 in [13] is 5.3 µM (active).
As to `Cc1ccc(NS(=O)(=O)c2ccc3[nH]c(=O)c(=O)[nH]c3c2)cc1Cl`, the IC50 at Aminopeptidase N is 41.9 µM (active).
Regarding `CC(=O)Nc1nc(SCCCc2ccccc2)n[nH]1`, the IC50 was > 100 µM (not active) in [9] and 6 µM (active) in [10].
`COc1ccccc1NC(=O)CN1CCC(n2nnc3cc(F)ccc32)CC1`: the IC50 is > 20 µM (inactive) on Bcl-2-related protein A1, 15.4 µM (active) in [5] and 17.8 µM (active) in [6].
Consider `COc1cc(C2Nn3c(nnc3-c3ccccc3OC)S2)ccc1O` (centres undefined), for which the IC50 in assay [14] is > 100 µM (inactive); in assay [15], 3.57 µM (active).
Take `CCN(CC)C(=O)c1ncn(C)c1C(=O)N(CC)CC`: the IC50 in assay [7] was 3.23 µM (active); in assay [8], 3.51 µM (active).
Turning to `O=[N+]([O-])c1ccc(/C=N/n2c(S)nnc2-c2cccnc2)cc1`, the IC50 in assay [14] is > 100 µM (inactive); in assay [15] it was 2.3 µM (active).
Consider `O=C1OC(c2ccc(O)cc2)(c2ccc(O)cc2)c2ccccc21` [PHENOLPHTHALEIN], for which the IC50 in assay [1] was 6.67 µM (active).

What is called IC50 is the concentration needed to halve the response being measured. Broadly, the EC50 is the midpoint of the concentration-response curve. A word on the AC50: it is the midpoint of the concentration-response curve, whichever way the signal moves.
